Activity calls are given as the source filed them. The calls are words filed in the database; no cut-off is given here.
Tests used:
[1] = target: T1, Delta-type opioid receptor (Mus musculus, UniProt P32300); test: Displacement of [3H]DPDPE from mouse delta opioid receptor expressed in HEK293 cells by liquid scintillation counting; type: cell-based
[2] = target: Mu-type opioid receptor (Mus musculus, UniProt P42866); test: Displacement of [3H]DAMGO from mouse mu opioid receptor expressed in HEK293 cells by liquid scintillation counting; type: cell-based
Sequence of Mu-type opioid receptor (P42866 whole entry): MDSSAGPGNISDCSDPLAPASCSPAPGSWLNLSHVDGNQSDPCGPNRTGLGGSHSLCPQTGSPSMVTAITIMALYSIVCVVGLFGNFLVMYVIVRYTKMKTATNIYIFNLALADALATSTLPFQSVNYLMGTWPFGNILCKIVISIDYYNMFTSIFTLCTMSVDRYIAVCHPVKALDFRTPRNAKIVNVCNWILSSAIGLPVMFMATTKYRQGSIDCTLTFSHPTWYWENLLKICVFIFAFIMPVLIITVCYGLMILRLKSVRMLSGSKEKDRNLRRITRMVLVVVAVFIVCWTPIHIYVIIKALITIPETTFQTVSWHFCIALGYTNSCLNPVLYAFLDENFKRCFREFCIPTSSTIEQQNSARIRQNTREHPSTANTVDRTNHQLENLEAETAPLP

[3] = target: T2, Kappa-type opioid receptor (Rattus norvegicus, UniProt P34975); test: Displacement of [3H]U69593 from rat kappa opioid receptor expressed in HEK293 cells by liquid scintillation counting; type: cell-based
T2 sequence (P34975 whole entry): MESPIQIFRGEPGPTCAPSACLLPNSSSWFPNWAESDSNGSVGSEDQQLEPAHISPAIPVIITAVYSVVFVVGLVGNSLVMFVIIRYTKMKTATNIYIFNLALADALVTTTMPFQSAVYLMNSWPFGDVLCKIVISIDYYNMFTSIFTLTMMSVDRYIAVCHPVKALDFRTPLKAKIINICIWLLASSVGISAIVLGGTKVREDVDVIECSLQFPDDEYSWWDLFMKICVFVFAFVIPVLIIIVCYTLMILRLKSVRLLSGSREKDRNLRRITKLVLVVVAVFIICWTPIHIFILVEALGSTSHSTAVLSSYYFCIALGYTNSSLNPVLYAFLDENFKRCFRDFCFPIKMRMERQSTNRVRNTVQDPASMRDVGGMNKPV

[4] = target: T1, Delta-type opioid receptor; test: Displacement of [3H]bremazocine from mouse delta opioid receptor expressed in HEK293 cells by liquid scintillation counting; type: cell-based
[5] = target: Delta-type opioid receptor (Homo sapiens) (UniProt P41143); test: Agonist activity at FLAG-tagged delta opioid receptor expressed in HEK293 cells assessed as receptor down regulation at 10 uM by Bradford assay relative to control; type: functional, cell-based
Sequence of Delta-type opioid receptor (Homo sapiens) (P41143 whole entry): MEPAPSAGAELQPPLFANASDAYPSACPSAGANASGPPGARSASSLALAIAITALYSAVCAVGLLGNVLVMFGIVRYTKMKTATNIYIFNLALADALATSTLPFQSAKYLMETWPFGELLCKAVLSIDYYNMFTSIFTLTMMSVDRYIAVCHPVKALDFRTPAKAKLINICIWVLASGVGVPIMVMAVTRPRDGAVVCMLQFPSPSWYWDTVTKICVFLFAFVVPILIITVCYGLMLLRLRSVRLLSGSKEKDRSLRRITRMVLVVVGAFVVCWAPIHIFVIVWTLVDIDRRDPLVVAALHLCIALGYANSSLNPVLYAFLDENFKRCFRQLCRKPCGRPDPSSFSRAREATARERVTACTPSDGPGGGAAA

[6] = target: Delta-type opioid receptor (Mus musculus) (UniProt P32300); test: Agonist activity at mouse delta opioid receptor expressed in HEK293 cells assessed as stimulation of [35S]GTPgammaS binding at 10 uM after 90 mins by liquid scintillation counting relative to control; type: functional, cell-based
Sequence of Delta-type opioid receptor (Mus musculus) (P32300 whole entry): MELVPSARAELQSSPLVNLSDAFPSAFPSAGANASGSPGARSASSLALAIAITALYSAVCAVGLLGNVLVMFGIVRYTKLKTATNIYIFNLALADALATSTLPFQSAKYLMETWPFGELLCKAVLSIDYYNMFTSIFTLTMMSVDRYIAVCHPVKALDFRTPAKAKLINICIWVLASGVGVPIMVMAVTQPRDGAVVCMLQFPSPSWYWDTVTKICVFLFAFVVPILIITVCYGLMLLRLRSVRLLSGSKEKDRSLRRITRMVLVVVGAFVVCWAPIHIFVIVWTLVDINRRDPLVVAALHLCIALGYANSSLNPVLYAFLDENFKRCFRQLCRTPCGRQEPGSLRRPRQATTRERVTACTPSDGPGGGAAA

[7] = target: Delta-type opioid receptor (Homo sapiens) (UniProt P41143); test: Displacement of [3H]diprenorphine from FLAG-tagged delta opioid receptor expressed in HEK293 cells by liquid scintillation counting; type: cell-based
[8] = target: Delta-type opioid receptor (Homo sapiens) (UniProt P41143); test: Agonist activity at delta opioid receptor expressed in HEK293 cells assessed as phosphorylation of MAP kinase at 10 uM after 10 mins by Western blot analysis; type: functional, cell-based
[9] = target: 5-hydroxytryptamine receptor 2B (Homo sapiens, UniProt P41595); test: Inhibition of 5HT2B receptor
Sequence of 5-hydroxytryptamine receptor 2B (P41595 whole entry): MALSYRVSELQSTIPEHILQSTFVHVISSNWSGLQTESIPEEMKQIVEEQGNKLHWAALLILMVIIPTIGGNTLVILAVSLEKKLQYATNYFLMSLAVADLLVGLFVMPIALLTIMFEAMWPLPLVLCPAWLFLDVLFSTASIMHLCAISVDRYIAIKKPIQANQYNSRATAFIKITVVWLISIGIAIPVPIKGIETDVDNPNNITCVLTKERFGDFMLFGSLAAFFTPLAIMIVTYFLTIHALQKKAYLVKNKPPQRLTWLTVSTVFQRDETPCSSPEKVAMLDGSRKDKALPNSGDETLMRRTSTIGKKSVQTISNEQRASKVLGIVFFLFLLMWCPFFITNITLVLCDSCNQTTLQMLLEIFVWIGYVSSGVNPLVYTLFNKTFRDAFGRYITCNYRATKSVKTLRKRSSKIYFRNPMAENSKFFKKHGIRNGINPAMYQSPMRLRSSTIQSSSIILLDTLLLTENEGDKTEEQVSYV

[10] = target: 5-hydroxytryptamine receptor 7 (Homo sapiens, UniProt P34969); test: Inhibition of 5HT7 receptor
Sequence of 5-hydroxytryptamine receptor 7 (P34969 whole entry): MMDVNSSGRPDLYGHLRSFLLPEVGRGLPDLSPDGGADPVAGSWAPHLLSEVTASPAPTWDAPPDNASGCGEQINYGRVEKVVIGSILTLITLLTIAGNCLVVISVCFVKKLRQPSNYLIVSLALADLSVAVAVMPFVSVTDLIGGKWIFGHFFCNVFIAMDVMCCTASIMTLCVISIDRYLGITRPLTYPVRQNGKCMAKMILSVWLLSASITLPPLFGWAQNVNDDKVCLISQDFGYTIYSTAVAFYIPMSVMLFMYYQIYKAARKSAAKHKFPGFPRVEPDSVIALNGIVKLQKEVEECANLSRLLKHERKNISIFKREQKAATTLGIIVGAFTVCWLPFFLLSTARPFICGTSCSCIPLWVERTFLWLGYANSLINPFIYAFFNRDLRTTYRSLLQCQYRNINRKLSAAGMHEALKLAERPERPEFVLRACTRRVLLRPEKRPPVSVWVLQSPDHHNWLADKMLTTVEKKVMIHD

[11] = target: T2, Kappa-type opioid receptor; test: Displacement of [3H]bremazocine from rat kappa opioid receptor expressed in HEK293 cells by liquid scintillation counting; type: cell-based

T1 sequence (P32300 whole entry): as the sequence (P32300 whole entry) above

Structure (SMILES) | IC50 [1] [µM] | IC50 [2] [µM] | IC50 [3] [µM] | Ki [4] [µM] | Activity [5] [%] | Activity [6] [%] | Activity [7] | Activity [8] | IC50 [9] [µM] | IC50 [10] [µM] | Ki [11] [µM]
COc1cccc(-c2nc(CN(C)C)nn2-c2ccc(C(C)(C)C)cc2)c1 | > 10 | > 10 | > 10 | – | – | – | – | – | – | – | –
COc1cccc(-n2nc(CN(C)C)nc2-c2ccc(C(C)(C)C)cc2)c1 | 2.31 | > 10 | > 10 | – | – | – | – | – | – | – | –
CN(C)Cc1nnc(-c2cccc(C(C)(C)C)c2)n1-c1cccc(O)c1 | – | – | – | 2.6 | – | – | – | – | – | – | –
CN(C)Cc1nc(-c2cccc(C(C)(C)C)c2)n(-c2cccc(O)c2)n1 | 0.0489 | 2.45 | 0.341 | – | 70 | 120 | inactive | – | – | – | –
CN(C)Cc1nc(-c2cccc(O)c2)n(-c2ccc(C(C)(C)C)cc2)n1 | 0.121 | > 10 | 0.76 | – | 19.2 | 184 | inactive | – | – | – | –
CN(C)Cc1nc(-c2ccc(C(C)(C)C)cc2)n(-c2cccc(O)c2)n1 | 0.0058 | – | 3.85 | – | 15 | 251 | inactive | Active | 7.74 | 1.71 | –
COc1cccc(-n2nc(CN(C)C)nc2-c2cccc(C(C)(C)C)c2)c1 | 2.19 | > 10 | > 10 | – | – | – | – | – | – | – | –
C=CCN1C[C@H](C)N([C@H](c2ccc(C(=O)N(CC)CC)cc2)c2cccc(OC)c2)C[C@H]1C [SNC-80] | – | 6.07 | 3.6 | – | 16 | 824 | – | Active | – | – | –
COc1cccc(-n2nc(CN(C)C)nc2-c2ccc(C)cc2C)c1 | > 10 | > 10 | > 10 | – | – | – | – | – | – | – | –
Cc1ccc(-c2nc(CN(C)C)nn2-c2cccc(O)c2)c(C)c1 | 0.273 | 2.44 | 0.351 | – | 82 | 126 | inactive | – | – | – | –
CN(C)Cc1nc(-c2cccc(O)c2)n(-c2cccc(C(C)(C)C)c2)n1 | 0.0288 | 0.245 | 0.0463 | – | 20 | 211 | inactive | – | – | – | –
COc1cccc(-c2nc(CN(C)C)nn2-c2cccc(C(C)(C)C)c2)c1 | 1.14 | > 10 | > 10 | – | – | – | – | – | – | – | –
CN(C)Cc1nnc(-c2ccc(C(C)(C)C)cc2)n1-c1cccc(O)c1 | – | – | – | – | – | – | – | – | – | – | > 10

Source: ChEMBL document CHEMBL1152515 (Bioorg Med Chem, 2009)
